This note sets out measurements from EP0100158A2, “(3-pyridinyl)heteroalkarylalkanols, alkanoic acids and esters” (THE UPJOHN COMPANY, priority 1982, dated 1984).

The target in the experiment is T1, TXA2 synthetase (Homo sapiens, UniProt P24557).
T1 construct: generated by mixing prostaglandin H2 (PGH2) with human platelet microsomes (HPM); from tissue; host or cells: human platelet microsomes
T1 sequence (P24557 1-533): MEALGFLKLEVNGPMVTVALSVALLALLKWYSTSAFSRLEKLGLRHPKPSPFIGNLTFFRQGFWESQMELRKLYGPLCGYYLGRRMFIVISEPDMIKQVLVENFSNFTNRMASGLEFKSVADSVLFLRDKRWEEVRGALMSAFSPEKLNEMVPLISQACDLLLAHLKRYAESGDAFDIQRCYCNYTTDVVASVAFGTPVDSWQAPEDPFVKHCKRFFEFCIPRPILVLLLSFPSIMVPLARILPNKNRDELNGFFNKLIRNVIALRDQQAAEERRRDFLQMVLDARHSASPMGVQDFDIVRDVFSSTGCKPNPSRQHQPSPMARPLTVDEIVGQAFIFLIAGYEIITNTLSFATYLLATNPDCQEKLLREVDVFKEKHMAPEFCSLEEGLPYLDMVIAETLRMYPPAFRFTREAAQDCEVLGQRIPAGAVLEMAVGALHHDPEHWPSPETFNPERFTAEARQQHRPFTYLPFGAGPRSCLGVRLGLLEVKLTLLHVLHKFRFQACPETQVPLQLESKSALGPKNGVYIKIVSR
Put plainly: TXA2 inhibition test: TXA2 generated from PGH2 with human platelet microsomes, response measured on superfused rabbit aortic strips. It is filed as biochemical. The conditions noted are these: inhibition of TXA2 formation; test compound added to human platelet microsomes 5 minutes before mixing with PGH2; rabbit aorta readout; read-out: approximate ED50's (converted).

Method: The compounds of the present invention were tested for TXAz inhibition as follows: • Rabbit aortic strips were superfused in series with Krebs solution. Thromboxane Az (TXA2) was generated by mixing prostaglandin H2 (PGH2) with human platelet microsomes (HPM).
Potential inhibitors were tested by comparing the response of the rabbit aorta to the amount of TXAz produced by mixing PGH2 and HPM without the test compound in the reaction medium and then the amount of TXAz produced when the test compound was added to the HPM 5 minutes before the HPM was mixed with PGH2.

On to `O=C(O)c1cc(CNc2cccnc2)ccc1O`, for which the IC50 was roughly 37.6 nM.
